Like-named read-outs stand apart in the source and are kept apart here.
Tests used:
Type in all cases: in vivo
[1] = test system: Alternaria solani; test: Tomato Early Blight (ALTESO) disease control; conditions: Alternaria solani, topical, 24 h, 1 Day Protectant, read-out: Disease Control ALTESO 1 DP
Description: Technical grades of materials were dissolved in acetone, which were then mixed with nine volumes of water containing 110 ppm Triton X-100. The fungicide solutions were applied onto wheat seedlings using an automated booth sprayer to run-off. All sprayed plants were allowed to air dry prior to further handling. All fungicides were evaluated using the aforementioned method for their activity vs. all target diseases. Wheat leaf blotch and brown rust activity were also evaluated using track spray applications, in which case the fungicides were formulated as EC formulations, containing 0.1% Trycol 5941 in the spray solutions. Wheat plants (variety Yuma) were grown from seed in a greenhouse in 50% mineral soil/50% soil-less Metro mix until the first leaf was fully emerged, with 7-10 seedlings per pot. These plants were inoculated with an aqueous spore suspension of Septoria tritici either prior to or after fungicide treatments. After inoculation the plants were kept in 100% relative humidity (one day in a dark dew chamber followed by two to three days in a lighted dew chamber at 20° C.) to permit spores to germinate and infect the leaf. The plants were then transferred to a greenhouse set at 20° C. for disease to develop. When disease symptoms were fully expressed on the 1st leaves of untreated plants, infection levels were assessed on a scale of 0 to 100 percent disease severity. Percent disease control was calculated using the ratio of disease severity on treated plants relative to untreated plants. Tomato plants (variety Outdoor girl) were propagated in soil-less Metro mix, with each pot having one plant, and used when 12 to 14 days old. Test plants were inoculated with an aqueous spore suspension of Alternaria solani 24 hr after fungicide treatments. After inoculation the plants were kept in 100% relative humidity (one day in a dark dew chamber followed by two to three days in a lighted dew chamber at 20° C.) to permit spores to germinate and infect the leaf. The plants were then transferred to a growth room at 22° C. for disease to develop. Fungicide formulation, application and disease assessment on the sprayed leaves followed the procedures as described in the Example A.

[2] = test system: Puccinia triticina; Synonym: Puccinia recondite f. Sp. Tritici; test: Wheat Brown Rust (PUCCRT) disease control; conditions: Puccinia triticina, topical; for pest or weed control at 100 ppm: rate 100 ppm; for pest or weed control at 121.5 g/ha: rate 121.5 g/H
Outline: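 Brown rust on first-leaf Yuma wheat: spore inoculation before or after spray application (acetone/Triton X-100 solution, or EC with Trycol in track spray), overnight 100% RH at 22 °C, disease developed at 24 °C. Severity scored 0–100% and converted to percent control against untreated.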

[3] = test system: Mycosphaerella graminicola; Anamorph: Septoria tritici; test: Leaf Blotch of Wheat (SEPTTR) disease control; conditions: Zymoseptoria tritici; for pest or weed control at 100 ppm: rate 100 ppm; for pest or weed control at 121.5 g/ha: rate 121.5 g/H
Outline: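 Protective or curative format: Septoria tritici inoculation either preceded or followed fungicide application to first-leaf Yuma wheat. Severity scored 0–100%; control expressed versus untreated.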

[4] = test system: Venturia inaequalis; test: Apple Scab (VENTIN) disease control; conditions: Venturia inaequalis, topical, 24 h, 1 Day Protectant, read-out: Disease Control VENTIN 1 DP
Description: Technical grades of materials were dissolved in acetone, which were then mixed with nine volumes of water containing 110 ppm Triton X-100. The fungicide solutions were applied onto wheat seedlings using an automated booth sprayer to run-off. All sprayed plants were allowed to air dry prior to further handling. All fungicides were evaluated using the aforementioned method for their activity vs. all target diseases. Wheat leaf blotch and brown rust activity were also evaluated using track spray applications, in which case the fungicides were formulated as EC formulations, containing 0.1% Trycol 5941 in the spray solutions. Wheat plants (variety Yuma) were grown from seed in a greenhouse in 50% mineral soil/50% soil-less Metro mix until the first leaf was fully emerged, with 7-10 seedlings per pot. These plants were inoculated with an aqueous spore suspension of Septoria tritici either prior to or after fungicide treatments. After inoculation the plants were kept in 100% relative humidity (one day in a dark dew chamber followed by two to three days in a lighted dew chamber at 20° C.) to permit spores to germinate and infect the leaf. The plants were then transferred to a greenhouse set at 20° C. for disease to develop. When disease symptoms were fully expressed on the 1st leaves of untreated plants, infection levels were assessed on a scale of 0 to 100 percent disease severity. Percent disease control was calculated using the ratio of disease severity on treated plants relative to untreated plants. Apple seedlings (variety McIntosh) were grown in soil-less Metro mix, with one plant per pot. Seedlings with two expanding young leaves at the top (older leaves at bottom of the plants were trimmed) were used in the test. Plants were inoculated with a spore suspension of Venturia inaequalis 24 hr after fungicide treatment and kept in a 22° C. dew chamber with 100% RH for 48 hr, and then moved to a greenhouse set at 20° C. for disease to develop. Fungicide formulation, application and disease assessment on the sprayed leaves followed the procedures as described in the Example A.

[5] = 24 h, 1 Day Protectant, read-out: PUCCRT 1 DP disease control
[6] = 72 h, 3 Day Curative, read-out: PUCCRT 3 DC disease control
[7] = 24 h, 1 Day Protectant, read-out: SEPTTR 1 DP disease control
[8] = 72 h, 3 Day Curative, read-out: SEPTTR 3 DC disease control

With `COc1ccnc(C(=O)N[C@H]2CCC[C@H](Cc3ccccc3)[C@@H](OCC(C)C)[C@H](C)OC2=O)c1OCOC(=O)C(C)C` [Compound F151] the pest or weed control at 100 ppm [1] was 80 to 100%, the pest or weed control at 100 ppm [2, 5] was 80 to 100% and the pest or weed control at 121.5 g/ha [2, 5] was 80 to 100%. For the same compound, the pest or weed control at 100 ppm [2, 6] was 80 to 100%, the pest or weed control at 121.5 g/ha [2, 6] was 80 to 100% and the pest or weed control at 100 ppm [3, 7] was 80 to 100%. It also gave a pest or weed control at 121.5 g/ha [3, 7] of 80 to 100%, a pest or weed control at 100 ppm [3, 8] of 80 to 100% and a pest or weed control at 121.5 g/ha [3, 8] of 80 to 100%. For the same compound, the pest or weed control at 100 ppm [4] was 0 to 80%.
With `COc1ccnc(C(=O)N[C@H]2CCC[C@H](Cc3ccccc3)[C@@H](Oc3ccccc3)[C@H](C)OC2=O)c1OCOC(C)=O` [Compound F108] the pest or weed control at 100 ppm [2, 5] was 80 to 100%, the pest or weed control at 121.5 g/ha [2, 5] was 80 to 100% and the pest or weed control at 100 ppm [2, 6] was 80 to 100%. For the same compound, the pest or weed control at 121.5 g/ha [2, 6] was 0 to 80%, the pest or weed control at 100 ppm [3, 7] was 80 to 100% and the pest or weed control at 121.5 g/ha [3, 7] was 80 to 100%. For the same compound, the pest or weed control at 100 ppm [3, 8] was 80 to 100%, the pest or weed control at 121.5 g/ha [3, 8] was 80 to 100% and the pest or weed control at 100 ppm [4] was 0 to 80%.
Compound `COc1ccnc(C(=O)N[C@H]2CCC[C@H](CCF)[C@@H](OCC(C)C)[C@H](C)OC2=O)c1OCOC(C)=O` [Compound F128, ((2-(((3S,7R,8R,9S)-7-(2-fluoroethyl)-8-isobutoxy-9-methyl-2-oxooxonan-3-yl)carbamoyl)-4-methoxypyridin-3-yl)oxy)methyl acetate] has a pest or weed control at 100 ppm [1] of 80 to 100%, a pest or weed control at 100 ppm [2, 5] of 80 to 100% and a pest or weed control at 121.5 g/ha [2, 5] of 80 to 100%. The pest or weed control at 100 ppm [2, 6] was 80 to 100%, the pest or weed control at 121.5 g/ha [2, 6] was 80 to 100% and the pest or weed control at 100 ppm [3, 7] was 80 to 100%. It also gave a pest or weed control at 121.5 g/ha [3, 7] of 80 to 100%, a pest or weed control at 100 ppm [3, 8] of 80 to 100% and a pest or weed control at 121.5 g/ha [3, 8] of 80 to 100%. The pest or weed control at 100 ppm [4] was 0 to 80%.
`CCCO[C@@H]1[C@@H](Cc2ccc(F)cc2)CCC[C@H](NC(=O)c2nccc(OC)c2OCOC(=O)COCC)C(=O)O[C@H]1C` [Compound F167] gave a pest or weed control at 100 ppm [1] of 80 to 100%, a pest or weed control at 100 ppm [2, 5] of 80 to 100% and a pest or weed control at 121.5 g/ha [2, 5] of 80 to 100%. The pest or weed control at 100 ppm [2, 6] was 80 to 100%, the pest or weed control at 121.5 g/ha [2, 6] was 80 to 100% and the pest or weed control at 100 ppm [3, 7] was 80 to 100%. It also gave a pest or weed control at 121.5 g/ha [3, 7] of 80 to 100%, a pest or weed control at 100 ppm [3, 8] of 80 to 100% and a pest or weed control at 121.5 g/ha [3, 8] of 80 to 100%. It also gave a pest or weed control at 100 ppm [4] of 80 to 100%.
In the case of `COc1ccnc(C(=O)N[C@H]2CCC[C@H](Cc3ccccc3)[C@@H](OC3CCCC3)[C@H](C)OC2=O)c1OCOC(C)=O` [Compound F110], the pest or weed control at 100 ppm [2, 5] is reported as 80 to 100%, the pest or weed control at 121.5 g/ha [2, 5] is reported as 80 to 100% and the pest or weed control at 100 ppm [2, 6] is reported as 80 to 100%. It also gave a pest or weed control at 121.5 g/ha [2, 6] of 80 to 100%, a pest or weed control at 100 ppm [3, 7] of 80 to 100% and a pest or weed control at 121.5 g/ha [3, 7] of 80 to 100%. It also gave a pest or weed control at 100 ppm [3, 8] of 80 to 100%, a pest or weed control at 121.5 g/ha [3, 8] of 80 to 100% and a pest or weed control at 100 ppm [4] of 0 to 80%.
`COc1ccnc(C(=O)N[C@H]2CCC[C@H](CC(F)F)[C@@H](Oc3ccccc3)[C@H](C)OC2=O)c1OC(C)=O` [Compound F82] showed a pest or weed control at 100 ppm [2, 5] of 80 to 100%, a pest or weed control at 121.5 g/ha [2, 5] of 80 to 100% and a pest or weed control at 100 ppm [2, 6] of 80 to 100%. The pest or weed control at 121.5 g/ha [2, 6] was 80 to 100%, the pest or weed control at 100 ppm [3, 7] was 80 to 100% and the pest or weed control at 121.5 g/ha [3, 7] was 80 to 100%. It also gave a pest or weed control at 100 ppm [3, 8] of 80 to 100%, a pest or weed control at 121.5 g/ha [3, 8] of 80 to 100% and a pest or weed control at 100 ppm [4] of 0 to 80%.

— patent US9265253B2, “Use of macrocyclic picolinamides as fungicides” (DOW AGROSCIENCES LLC, priority 2013, dated 2016)
